Publication PMC4686731, “Screening of Pharmacologically Active Small Molecule Compounds Identifies Antifungal Agents Against Candida Biofilms” (Frontiers in Microbiology, 2015)
In brackets after ≈: the same amount, converted by molar mass. Where two headings read alike, the source gives them in different places.

What was measured:
[1] = tested on: C. albicans strain SC5314; test: High-throughput screening (HTS) with antifungal susceptibility test, CellTiter-Glo ATP read-out; format: cell-based, Candida albicans; settings: for inhibition at 10 µM: Candida albicans, SC5314, 24 h; for fungistatic or fungicidal effect on C. albicans: HTS; for percent inhibition of the metabolic activity (ATP level) of C. albicans: 10 µM
Protocol: (§1) The in vitro susceptibility of well-characterized wild-type C. albicans strain SC5314, which was provided by Prof. N.A.R. Gow (University of Aberdeen, Aberdeen, UK) was tested against 1280 compounds from the Library of Pharmacologically Active Compounds (LOPAC^1280TM, Sigma–Aldrich, USA). The screen was performed with C. albicans SC5314, and hits were further confirmed with the type strains C. dubliniensis MYA 577, C. glabrata ATCC 2001, C. kusei ATCC 6258, C. palapsilosis ATCC 22019, and C. tropicalis ATCC13803.
High-Throughput Screening was conducted using ASTs, according to the standard Clinical and Laboratory Standard Institute (CLSI) method ([Watamoto et al., 2009]). Inocula from 24-h yeast cultures on Sabouraud’s dextrose agar (SDA) (Gibco, UK) were adjusted to a turbidity equivalent to a 0.5 McFarland standard at 520 nm using a spectrophotometer. The suspension was diluted further with RPMI 1640 medium (Gibco, UK) to yield an inoculum concentration of 0.5 × 10^3 to 2.5 × 10^3 cells/mL. C. albicans was incubated with small-molecule compounds (10 μM) from LOPAC^1280TM, which total volume was 150 μL, in 96-well plates at 37°C for 24 h to evaluate the antifungal effects. After incubation, the viability of the fungal cells was determined using the CellTiter-Glo luminescent cell viability kit (Promega, USA). The CellTiter-Glo reagent (150 μL) was added to the medium and incubated for 15 min at room temperature with shaking at 900 rpm. The luminescent signals were detected using a luminometer (GloMax Discover System, Promega, USA). The resulting signal intensity corresponds to ATP amounts and thus to the number of viable microbial cells upon drug exposure ([Stylianou et al., 2014]). In all 96-well plates, 100 and 0% growth controls were included as microbes plus dimethyl sulfoxide (0.1%) and microbes plus amphotericin B (100 μM), respectively. All assays were performed at least as two biological replicates in triplicate. The ATP level of C. albicans cells, which corresponded to the cell metabolic activity and viability, was calculated for each compound using the following equation (Figure 1A).
Percentageinhibition=100 × 1-{(experimental-positivecontrolaverage)/(negativecontrolaverage-positivecontrolaverage)}
Wells were scored as hits if the percentage inhibition was >50%. Hit compounds were evaluated further to assess their antifungal effects.

C. glabrata ATCC 2001 = test: AST broth microdilution, high cell density planktonic mode; format: cell-based; settings: Nakaseomyces glabratus, read-out: Minimum inhibitory concentration (MIC)
Protocol: as §1
(§2) To investigate the antifungal effects of the hit compounds, ASTs were conducted using broth microdilution assays with high cell densities of the planktonic mode, adhesion phase and biofilm mode against Candida strains (C. albicans, C. dubliniensis, C. glabrata, C. kusei, C. palapsilosis, and C. tropicalis). First, high density cell (1 × 10^7 cells/mL) suspensions were added to the RPMI medium containing each hit compound (10–1000 μM) in 96-well plates and incubated at 37°C for 24 h. Next, the 50% minimum inhibitory concentrations (MICs) of high-density Candida planktonic cultures were determined using the CellTiter-Glo luminescent cell viability kit, as described above. The antifungal effects of the hit compounds were also evaluated in the adhesion phase and the biofilm mode, in the same manner as the planktonic mode. Candida biofilms were produced as described previously ([Jin et al., 2004]). In brief, Candida cells were grown on SDA at 37°C for 18 h. A loopful of the yeast culture was then inoculated into yeast nitrogen base (YNB) (Difco, USA) medium supplemented with 50 mM glucose. After overnight broth culture in a rotary shaker at 75 rpm, the cells were washed twice with 20 mL of PBS (pH 7.2, 0.1 M). The yeast cells were re-suspended in YNB supplemented with 100 mM glucose and adjusted to an optical density of 0.38 (1 × 10^7 cells/mL) at 520 nm. This standardized cell suspension was used immediately to form biofilms in the wells of 96-well polystyrene culture plates (Iwaki, Tokyo, Japan). First, the cells were incubated for 90 min at 37°C in a shaker at 75 rpm to allow yeast adherence to the well surface (adhesion phase), before the medium was aspirated and each well was washed once with PBS to remove non-adherent cells. YNB containing 100 mM glucose was then pipetted into each well and the plate was incubated at 37°C in a shaker at 75 rpm for 24 h. Non-adherent cells were removed by pipetting and the biofilms were washed twice with PBS. Following this biofilm growth phase, microscopic examination of the cultures was performed to exclude contamination. These ASTs were repeated on three different occasions.

C. kusei ATCC 6258 = test: as above; format: cell-based; settings: 24 h, read-out: Minimum inhibitory concentration (MIC)
Protocol: as §1, §2

[2] = tested on: C. palapsilosis ATCC 22019; test: as above; format: cell-based; settings: 24 h, read-out: Minimum inhibitory concentration (MIC)
Protocol: as §1, §2

C. tropicalis ATCC13803 = test: as above; format: cell-based; settings: Candida tropicalis, read-out: Minimum inhibitory concentration (MIC)
Protocol: as §1, §2

[3] = tested on: C. albicans SC5314 biofilm; test: AST, biofilm mode; format: cell-based; settings: Candida albicans, read-out: Minimum inhibitory concentration (MIC)
Protocol: as §1, §2

[4] = tested on: C. dubliniensis MYA 577 biofilm; test: AST, biofilm mode; format: cell-based; settings: Candida dubliniensis, MYA577BIOFILM, read-out: Minimum inhibitory concentration (MIC)
Protocol: as §1, §2

[5] = tested on: C. glabrata ATCC 2001 biofilm; test: AST, biofilm mode; format: cell-based; settings: Nakaseomyces glabratus, read-out: Minimum inhibitory concentration (MIC)
Protocol: as §1, §2

[6] = tested on: C. kusei ATCC 6258 biofilm; test: AST, biofilm mode; format: cell-based; settings: read-out: Minimum inhibitory concentration (MIC)
Protocol: as §1, §2

[7] = tested on: C. palapsilosis ATCC 22019 biofilm; test: AST, biofilm mode; format: cell-based; settings: read-out: Minimum inhibitory concentration (MIC)
Protocol: as §1, §2

[8] = tested on: C. tropicalis ATCC13803 biofilm; test: AST, biofilm mode; format: cell-based; settings: Candida tropicalis, read-out: Minimum inhibitory concentration (MIC)
Protocol: as §1, §2

Candida biofilms = test: AST, biofilm mode, all Candida strains; format: cell-based; settings: all six strains
Protocol: as §1, §2

[9] = compound 10 μM, 0.5 × 10^3 to 2.5 × 10^3 cells/mL, 37°C, 24 h, read-out: percent inhibition of the metabolic activity (ATP level) of C. albicans
[10] = compound 10 μM, 0.5 × 10^3 to 2.5 × 10^3 cells/mL, 37°C, 24 h
[11] = ATCC2001, 50% MIC, planktonic mode, 1 × 10^7 cells/mL, 24 h
[12] = 50% MIC, planktonic mode, 1 × 10^7 cells/mL
[13] = ATCC13803, 50% MIC, planktonic mode, 1 × 10^7 cells/mL, 24 h
[14] = SC5314, biofilm mode (24 h biofilm)
[15] = ATCC2001, biofilm mode (24 h biofilm)
[16] = ATCC13803, biofilm mode (24 h biofilm)

SMILES	inhibition at 10 µM [1, 9] [%]	fungistatic or fungicidal effect on C. albicans ([1]; compound 10 μM)	percent inhibition of the metabolic activity (ATP level) of C. albicans [1, 10] [%]	MIC (C. glabrata ATCC 2001; [11]) [µM]	MIC (C. kusei ATCC 6258; [12]) [µM]	MIC [2, 12] [µM]	MIC (C. tropicalis ATCC13803; [13]) [µM]	MIC [3, 14] [µM]	MIC ([4]; biofilm mode (24 h biofilm)) [µM]	MIC [5, 15] [µM]	MIC ([6]; biofilm mode (24 h biofilm)) [µM]	MIC ([7]; biofilm mode (24 h biofilm)) [µM]	MIC [8, 16] [µM]	further results
Cc1ccc(S(=O)(=O)/C=C/C#N)cc1 [Bay11-7082]	100	strong fungicidal effects	> 90	7.8 (≈ 1.62 µg/mL)	3.9 (≈ 0.808 µg/mL)	3.9 (≈ 0.808 µg/mL)	7.8 (≈ 1.62 µg/mL)	31.3 (≈ 6.49 µg/mL)	31.3 (≈ 6.49 µg/mL)	62.5 (≈ 13 µg/mL)	62.5 (≈ 13 µg/mL)	15.6 (≈ 3.23 µg/mL)	62.5 (≈ 13 µg/mL)	concentration that inhibited the metabolic activity of Candida biofilms (Candida biofilms; listed as BAY11-7082): below 500 μM; concentration that inhibited the metabolic activity of Candida biofilms (Candida biofilms; listed as Bay 11-7082): < 62.5 µM
CC(C)(C)c1ccc(S(=O)(=O)/C=C/C#N)cc1 [Bay11-7085]	100	strong fungicidal effects	> 90	3.9 (≈ 0.972 µg/mL)	3.9 (≈ 0.972 µg/mL)	3.9 (≈ 0.972 µg/mL)	3.9 (≈ 0.972 µg/mL)	31.3 (≈ 7.8 µg/mL)	62.5 (≈ 15.6 µg/mL)	62.5 (≈ 15.6 µg/mL)	62.5 (≈ 15.6 µg/mL)	15.6 (≈ 3.89 µg/mL)	62.5 (≈ 15.6 µg/mL)	concentration that inhibited the metabolic activity of Candida biofilms (Candida biofilms; listed as BAY11-7085): below 500 μM; concentration that inhibited the metabolic activity of Candida biofilms (Candida biofilms; listed as Bay 11-7085): < 62.5 µM
Cc1c2ccncc2c(C)c2c1[nH]c1ccccc12 [Ellipticine]	100	strong fungicidal effects	> 90	7.8 (≈ 1.92 µg/mL)	7.8 (≈ 1.92 µg/mL)	7.8 (≈ 1.92 µg/mL)	15.6 (≈ 3.84 µg/mL)	125 (≈ 30.8 µg/mL)	500 (≈ 123 µg/mL)	62.5 (≈ 15.4 µg/mL)	250 (≈ 61.6 µg/mL)	250 (≈ 61.6 µg/mL)	250 (≈ 61.6 µg/mL)	concentration that inhibited the metabolic activity of Candida biofilms (Candida biofilms): < 500 µM
C[n+]1cc2c3c(ccc2c2ccc4cc5c(cc4c21)OCO5)OCO3 [Sanguinarine, Sanguinarine chloride hydrate]	–	strong fungicidal effects	> 90	–	–	–	–	–	–	–	–	–	–	inhibition at 10 µM ([1]; read-out: percent inhibition of the metabolic activity (ATP level) of C. albicans, compound 10 μM, 0.5 × 10^3 to 2.5 × 10^3 cells/mL, 37°C, 24 h): 100%; MIC (C. glabrata ATCC 2001; ATCC2001, 24 h): < 1 µM; MIC (C. kusei ATCC 6258): < 1 µM; MIC [2]: < 1 µM; MIC (C. tropicalis ATCC13803; ATCC13803, 24 h): < 1 µM; MIC ([3]; SC5314, 24 h): 15.6 µM; MIC ([4]; 24 h): 15.6 µM; MIC ([5]; ATCC2001, 24 h): 15.6 µM; MIC ([6]; 24 h): 31.3 µM; MIC ([7]; 24 h): 7.8 µM; MIC ([8]; ATCC13803, 24 h): 31.3 µM; concentration that inhibited the metabolic activity of Candida biofilms (Candida biofilms; listed as Sanguinarine chloride hydrate): < 31.3 µM; concentration that inhibited the metabolic activity of Candida biofilms (Candida biofilms; listed as sanguinarine chloride hydrate): below 500 μM
